Results as given in patent publication US7192948B2, “Bicyclic heterocycles as HIV integrase inhibitors” (priority 2004, dated 2007).

Biological target: T1, HIV-integrase (Human immunodeficiency virus type 1 group M subtype B, UniProt P12497)
T1 construct: Recombinant integrase (0.26 ng) was incubated with the beads
Assay: HIV-Integrase Inhibition Activity (SPA bead strand transfer assay)
Format: biochemical
Details: recombinant integrase, in vitro
Experimental: HIV-Integrase Inhibition Activity. To evaluate in-vitro activity against HIV-integrase, 5 pmole of biotin labeled substrate DNA was bound to 100 μg of Streptavidin coated PVT SPA beads (Amersham Pharmacia Biotech). Recombinant integrase (0.26 ng) was incubated with the beads for 90 min at 37° C. Unbound enzyme was removed by washing the complex followed by addition of inhibitors and 0.1 fmol of P33 labeled target DNA. The reaction was stopped by adding EDTA to a final concentration of […]. Samples were counted in TopCountNXT (Packard) and the CPM was used as a measure of integration. The reaction condition was as described in A. Engelman and R. Craigie, J. Virol. 69, 5908–5911 (1995). The sequences of substrate and target DNA were described in Nucleic Acid Research 22, 1121–1122 (1994).

Compound | IC50 [nM]
O=C(NCc1ccc(F)cc1)c1nc2n(c(=O)c1O)CC(=O)N1CCC[C@@H]21 [Example 46, (S)-7-Hydroxy-4,6-dioxo-2,3,4,5,6,9b-hexahydro-1H-3a,5a,9-triaza-benz[e]indene-8-carboxylic acid 4-fluoro-benzylamide] | ≥ 50
CNC(=O)c1cc(F)ccc1CNC(=O)c1nc2n(c(=O)c1O)CCC(=O)N2C [Example 23, N-(4-Fluoro-2-(methylcarbamoyl)benzyl)-3-hydroxy-9-methyl-4,8-dioxo-6,7,8,9-tetrahydro-4H-pyrimido[1,2-a]pyrimidine-2-carboxamide] | 4 to 15
CC1(C)NC(=O)Cn2c1nc(C(=O)NCc1ccc(F)cc1)c(O)c2=O [Example 45, N-(4-fluorobenzyl)-3-hydroxy-9,9-dimethyl-4,7-dioxo-6,7,8,9-tetrahydro-4H-pyrazino[1,2-a]pyrimidine-2-carboxamide] | 16 to 49000
O=C1Cn2c(nc(C(=O)NCc3ccc(F)cc3)c(O)c2=O)CN1 [Example 43, N-(4-Fluorobenzyl)-3-hydroxy-4,7-dioxo-6,7,8,9-tetrahydro-4H-pyrazino[1,2-a]pyrimidine-2-carboxamide] | ≥ 50
CN1Nc2nc(C(=O)NCc3ccc(Cl)c(Cl)c3)c(O)c(=O)n2CC1=O [Example 31, N-(3,4-Dichlorobenzyl)-7-hydroxy-2-methyl-3,6-dioxo-2,3,4,6-tetrahydro-1H-pyrimido[2,1-c][1,2,4]triazine-8-carboxamide] | 4 to 15
Cc1cc(CNC(=O)c2nc3n(c(=O)c2O)CC(=O)N2CCCN32)ccc1F [Example 35, 7-Hydroxy-4,6-dioxo-2,3,4,5-tetrahydro-1H,6H-3a,5a,9,9b-tetraaza-benz[e]indene-8-carboxylic acid 4-fluoro-3-methyl-benzylamide] | 4 to 15
CN1C(=O)Cn2c1nc(C(=O)NCc1ccc(F)cc1)c(O)c2=O [Example 9, N-(4-Fluorobenzyl)-6-hydroxy-1-methyl-2,5-dioxo-1,2,3,5-tetrahydroimidazo[1,2-a]pyrimidine-7-carboxamide] | ≥ 50
CN1C(=O)Cn2c1nc(C(=O)NCc1ccc(F)c(Cl)c1)c(O)c2=O [Example 12, N-(3-Chloro-4-fluorobenzyl)-6-hydroxy-1-methyl-2,5-dioxo-1,2,3,5-tetrahydroimidazo[1,2-a]pyrimidine-7-carboxamide] | 16 to 49000
CN1C(=O)Cn2c(nc(C(=O)NCc3ccc(F)c(Cl)c3)c(O)c2=O)N1C [Example 28, N-(3-Chloro-4-fluorobenzyl)-1,2-dimethyl-7-hydroxy-3,6-dioxo-2,3,4,6-tetrahydro-1H-pyrimido[2,1-c][1,2,4]triazine-8-carboxamide] | 16 to 49000
CN1C(=O)Cn2c(nc(C(=O)NCc3ccc(Cl)c(Cl)c3)c(O)c2=O)N1C [Example 26, N-(3,4-Dichlorobenzyl)-1,2-dimethyl-7-hydroxy-3,6-dioxo-2,3,4,6-tetrahydro-1H-pyrimido[2,1-c][1,2,4]triazine-8-carboxamide] | 16 to 49000
O=C(NCc1ccc(F)cc1)c1nc2n(c(=O)c1O)CCS(=O)(=O)N2 [Example 24, 7-Hydroxy-2,2,6-trioxo-1,3,4,6-tetrahydro-2H-2λ^6-pyrimido[2,1-c][1,2,4]thiadiazine-8-carboxylic acid 4-fluoro-benzylamide] | ≥ 50
CNC(=O)c1cc(F)ccc1CNC(=O)c1nc2n(c(=O)c1O)CC(C)(C)S2 [Example 42, N-(4-Fluoro-2-(methylcarbamoyl)benzyl)-6-hydroxy-2,2-dimethyl-5-oxo-3,5-dihydro-2H-thiazolo[3,2-a]pyrimidine-7-carboxamide] | ≥ 50
Cc1cc(CNC(=O)c2nc3n(c(=O)c2O)CC(=O)N2CCCCN32)ccc1F [Example 32, 2-Hydroxy-1,9-dioxo-5,6,7,8,9,10-hexahydro-1H-4,4b,8a,10a-tetraaza-phenanthrene-3-carboxylic acid 4-fluoro-3-methyl-benzylamide] | 4 to 15
Cc1cc(CNC(=O)c2nc3n(c(=O)c2O)CC(=O)N3Cc2ccccc2)ccc1F [Example 15, N-(4-Fluoro-3-methylbenzyl)-1-benzyl-6-hydroxy-2,5-dioxo-1,2,3,5-tetrahydroimidazo[1,2-a]pyrimidine-7-carboxamide] | 16 to 49000
CNC(=O)c1cc(F)ccc1CNC(=O)c1nc2n(c(=O)c1O)CC(=O)N2C [Example 17, N-{4-Fluoro-2-(methylcarbamoyl)benzyl}-6-hydroxy-1-methyl-2,5-dioxo-1,2,3,5-tetrahydroimidazo[1,2-a]pyrimidine-7-carboxamide] | ≥ 50
CN1C(=O)Cn2c1nc(C(=O)NCc1ccc(Cl)c(Cl)c1)c(O)c2=O [Example 10, N-(3,4-Dichlorobenzyl)-6-hydroxy-1-methyl-2,5-dioxo-1,2,3,5-tetrahydroimidazo[1,2-a]pyrimidine-7-carboxamide] | 4 to 15
O=C(NCc1ccc(F)cc1)c1nc2n(c(=O)c1O)CCS2 [Example 36, N-(4-Fluorobenzyl)-6-hydroxy-5-oxo-3,5-dihydro-2H-thiazolo[3,2-a]pyrimidine-7-carboxamide] | 4 to 15

Compound | IC50 [nM]
O=C(NCc1ccc(F)cc1)c1nc2n(c(=O)c1O)CC(=O)N2Cc1ccccc1 [Example 14, N-(4-Fluorobenzyl)-1-benzyl-6-hydroxy-2,5-dioxo-1,2,3,5-tetrahydroimidazo[1,2-a]pyrimidine-7-carboxamide] | 16 to 49000
O=C(NCc1ccc(F)cc1)c1nc2n(c(=O)c1O)CC(=O)N1CCCCN21 [Example 33, 2-Hydroxy-1,9-dioxo-5,6,7,8,9,10-hexahydro-1H-4,4b,8a,10a-tetraaza-phenanthrene-3-carboxylic acid 4-fluoro-benzylamide] | 16 to 49000
CNC(=O)c1cc(F)ccc1CNC(=O)c1nc2n(c(=O)c1O)CCS2 [Example 40, N-(4-Fluoro-2-(methylcarbamoyl)benzyl)-6-hydroxy-5-oxo-3,5-dihydro-2H-thiazolo[3,2-a]pyrimidine-7-carboxamide] | 16 to 49000
O=C1Cn2c(nc(C(=O)NCc3ccc(F)cc3)c(O)c2=O)N1 [Example 1, 6-Hydroxy-2,5-dioxo-1,2,3,5-tetrahydro-imidazo[1,2-a]pyrimidine-7-carboxylic acid 4-fluoro-benzylamide] | ≥ 50
O=C(NCc1ccc(Cl)c(Cl)c1)c1nc2n(c(=O)c1O)CCS2 [Example 38, N-(3,4-Dichlorobenzyl)-6-hydroxy-5-oxo-3,5-dihydro-2H-thiazolo[3,2-a]pyrimidine-7-carboxamide] | 4 to 15
CNC(=O)c1cc(F)ccc1CNC(=O)c1nc2n(c(=O)c1O)CC(=O)N2Cc1ccccc1 [Example 16, N-(4-Fluoro-2-(methylcarbamoyl)benzyl)-1-benzyl-6-hydroxy-2,5-dioxo-1,2,3,5-tetrahydroimidazo[1,2-a]pyrimidine-7-carboxamide] | 16 to 49000
CC1(C)Cn2c(nc(C(=O)NCc3ccc(F)cc3)c(O)c2=O)S1 [Example 41, N-(4-Fluorobenzyl)-6-hydroxy-2,2-dimethyl-5-oxo-3,5-dihydro-2H-thiazolo[3,2-a]pyrimidine-7-carboxamide] | ≥ 50
CN1Cc2nc(C(=O)NCc3ccc(F)cc3)c(O)c(=O)n2CC1=O [Example 44, N-(4-Fluorobenzyl)-3-hydroxy-8-methyl-4,7-dioxo-6,7,8,9-tetrahydro-4H-pyrazino[1,2-a]pyrimidine-2-carboxamide] | ≥ 50
Cc1cc(CNC(=O)c2nc3n(c(=O)c2O)CC(=O)N3C)ccc1F [Example 11, N-(4-Fluoro-3-methylbenzyl)-6-hydroxy-1-methyl-2,5-dioxo-1,2,3,5-tetrahydroimidazo[1,2-a]pyrimidine-7-carboxamide] | 4 to 15
Cc1cc(CNC(=O)c2nc3n(c(=O)c2O)CC(=O)N(C)N3C)ccc1F [Example 27, N-(4-Fluoro-3-methylbenzyl)-1,2-dimethyl-7-hydroxy-3,6-dioxo-2,3,4,6-tetrahydro-1H-pyrimido[2,1-c][1,2,4]triazine-8-carboxamide] | 16 to 49000
Cc1ccc(CNC(=O)c2nc3n(c(=O)c2O)CC(=O)N3C)cc1C [Example 13, N-(3,4-Dimethylbenzyl)-6-hydroxy-1-methyl-2,5-dioxo-1,2,3,5-tetrahydroimidazo[1,2-a]pyrimidine-7-carboxamide] | 16 to 49000
Cc1cc(CNC(=O)c2nc3n(c(=O)c2O)CC(=O)N(C)N3)ccc1F [Example 30, N-(4-Fluoro-3-methylbenzyl)-7-hydroxy-2-methyl-3,6-dioxo-2,3,4,6-tetrahydro-1H-pyrimido[2,1-c][1,2,4]triazine-8-carboxamide] | ≥ 50
Cc1ccc(CNC(=O)c2nc3n(c(=O)c2O)CCS3)cc1C [Example 39, N-(3,4-Dimethylbenzyl)-6-hydroxy-5-oxo-3,5-dihydro-2H-thiazolo[3,2-a]pyrimidine-7-carboxamide] | 16 to 49000
Cc1cc(CNC(=O)c2nc3n(c(=O)c2O)CCS3)ccc1F [Example 37, N-(4-Fluoro-3-methylbenzyl)-6-hydroxy-5-oxo-3,5-dihydro-2H-thiazolo[3,2-a]pyrimidine-7-carboxamide] | 4 to 15
CN1Nc2nc(C(=O)NCc3ccc(F)cc3)c(O)c(=O)n2CC1=O [Example 29, N-(4-Fluorobenzyl)-7-hydroxy-2-methyl-3,6-dioxo-2,3,4,6-tetrahydro-1H-pyrimido[2,1-c][1,2,4]triazine-8-carboxamide] | ≥ 50
CN1C(=O)Cn2c(nc(C(=O)NCc3ccc(F)cc3)c(O)c2=O)N1C [Example 25, N-(4-Fluorobenzyl)-1,2-dimethyl-7-hydroxy-3,6-dioxo-2,3,4,6-tetrahydro-1H-pyrimido[2,1-c][1,2,4]triazine-8-carboxamide] | 16 to 49000
